{"source": "patent US20240115527A1", "about": "“CXCR1/CXCR2 INHIBITORS FOR USE IN TREATING MYELOFIBROSIS” (Icahn School of Medicine at Mount Sinai, priority 2020, published 2024)", "assay_type_in_all_cases": "cell-based, human", "key": {"[1]": {"system": "co-cultures of MF MNC and stromal cells", "assay": "ELISA of IL-8 and VEGF in conditioned medium of co-cultures of MF MNC and splenic stromal cells", "description": "FIGS. 6A, 6B, 6C, 6D, and 6E illustrate that a CXCR1/CXCR2 inhibitor reverses effects of IL-8 on micro-environmental cells. […] N splenic AC=normal splenic adherent cells. nBM MNC=non-adherent bone marrow mononuclear cells. MNC=mononuclear cells. […] FIGS. 6D and 6E illustrate that addition of CXCR1/CXCR2 inhibitor Ladx decreased the levels of IL-8 (FIG. 6D) and VEGF (FIG. 6E) in conditioned medium harvested from co-cultures of MF MNC and stromal cells."}, "[2]": {"system": "MF CD34+ cells", "assay": "Colony forming assay (CFU-GM) of cultured MF CD34+ cells with IL-8", "description": "FIGS. 5A, 5B. 5C, 5D, and 5E illustrate that a CXCR1/CXCR2 inhibitor reverses effects of IL-8 on MF CD34^+ cell colony formation. […] CFU-GM=colony-forming unit-granulocyte-macrophage. FIGS. 5B and 5C illustrate that IL-8 increased CFU-GM colony formation by MF CD34^+ cells in a dose dependent fashion and that the effects of IL-8 were inhibited by treatment with Ladx. FIG. 5B. Normal cells. FIG. 5C. MF cells. […] Con=control. IL-8 concentrations increase from left to right. […] P values were as follows: w/o Ladx: Con vs IL-8—10 ng: 0.159332; Con vs IL-8—20 ng: 0.011976; Con vs IL-8—50 ng: 0.00262; Con vs IL-8—100 ng: 0.00042; w/ 10 μM Ladx: Con vs Ladx: 0.315782; IL-8—10 ng vs plus Ladx: 0.295851; IL-8—20 ng vs plus Ladx: 0.077726; IL-8—50 ng vs plus Ladx: 0.031355; IL-8—100 ng vs plus Ladx: 0.081595."}, "[3]": {"system": "normal donor CD34+ cells", "assay": "Proliferation and lineage differentiation of normal donor cells cultured with IL-8, flow cytometry", "conditions": "ladarixin added to IL-8 culture, FIG. 4A"}}}
{"compound": "C[C@@H](C(=O)NS(C)(=O)=O)c1ccc(OS(=O)(=O)C(F)(F)F)cc1", "note": "[Ladarixin, R(-)-2-[(4′-trifluoromethanesulfonyloxy)phenyl]-N-methanesulfonyl propionamide]", "values": [{"measurement": "IL-8 levels in co-cultures (conditioned medium)", "setting": "[1]; FIG. 6D", "result": "decreased"}, {"measurement": "VEGF levels in co-cultures (conditioned medium)", "setting": "[1]; FIG. 6E", "result": "decreased"}, {"measurement": "effect on IL-8 increased CFU-GM colony formation by MF samples with the highest expression of CXCR1/CXCR2", "setting": "[2]; 10 μM Ladx, FIG. 5E", "result": "corrected"}, {"measurement": "effect on IL-8 increased numbers of MF CFU-GM colonies", "setting": "[2]; addition of ladarixin, FIG. 5C", "result": "blunted"}, {"measurement": "effect on IL-8 induced change of normal CD34+, CD41+ and CD33+ cell populations", "setting": "[3]", "result": "reversed the effects of IL-8"}]}
